Measured values reported in patent US20260021147A1, “COMPOSITIONS AND METHODS FOR TREATING INFLAMMATORY DISEASE” (The Regents of the University of Michigan, priority 2022, published 2026).
Entries after “also recorded” stand apart in the source; their conditions may differ.

How the values were obtained:
[1] = Pharmacokinetics of meropenem in cecal contents by LC-MS; type: in vivo, C57BL/6 mice; conditions: 10 mg subcutaneous injection; 4, 8, 24, 48 and 96 hours
Procedure: C57BL/6 mice were treated with 10 mg of meropenem by subcutaneously injection. Cecal contents were collected prior to, 4, 8, 24, 48, and 96 hours after meropenem injection. To determine the relative abundance of meropenem in mouse cecum samples, extracts were prepared and analyzed with a Thermo Scientific TSQ Quantiva triple quadruple mass spectrometer coupled with a Dionex UltiMate 3000 HPLC system. Approximately 600 mgs of mouse cecal contents were homogenized with a Precellys Tissue Homogenizer. Metabolites were extracted using 100% acetonitrile. The tissue lysates were vortexed, centrifuged at 17,000 g for 5 min 5 at 4° C., and organic layers were transferred to clean tubes, followed by evaporation to dryness under nitrogen. Dried extracts were reconstituted in 50/50 (v/v) water/Acetonitrile, and 5 μL was injected for analysis by LC-MS. The mobile phase A is 100% water and mobile phase B is 0.1% Formic Acid in acetonitrile. Separation of meropenem was achieved on an Agilent SB-C18, 1.8 μm, 100×3 mm column. The flow rate was 250 μL/min at 35° C., and the gradient elution program was: 0-1 min, 5% MPB; 1-5 min, 5-50% MPB; 5-6 min, 50-95% MPB; 6-10 min, 95% MPB; 10-10.1 min, 95-5% MPB. The total run time was 15 min. The mass spectrometer was operated in the MRM positive ion electrospray mode with the transition m/z 384.1->68.0. […]

[2] = test system: allogeneic mice (B6D2F1 recipients of B6 donor cells); experiment: Murine GvHD model (allo-HSCT): survival and GvHD histology; type: in vivo
Procedure: (§1) In a murine model with a mucin-deficient mutate strain of BT, piperacillin/tazobactam was given at a concentration of 3.2 g/L in combination with vancomycin and metronidazole dosed 1.5 mg daily by oral gavage from days −16 to −12 relative to transplant.
D-(+)-xylose (X3877, Sigma-Aldrich) or D-(+)-glucose (G8270, Sigma-Aldrich) was dissolved in phosphate buffer pH 8.0 with meropenem or in water without meropenem and given at a concentration of 0.5% from days 13 to 28 after allo-HSCT.
Mice were transplanted as previously described (Hayase et al., 2017).
(§2) Pathology scores were quantified by a blinded pathologist. […] Sections were imaged using an Aperio AT2.

intestinal microbiota [3] = experiment: Quantification of fecal bacterial density by 16S rRNA gene qPCR; type: in vivo, mice; conditions: 0.625 g/L meropenem in drinking water
Procedure: Genomic DNA was isolated from stool as described above. qPCR was performed as previously described (Yang et al., 2015). In brief, 16S rRNA gene sequences were amplified from total fecal DNA using the primers 926F (5′-[…]-3′) and 1062R (5′-[…]-3′). Real-time PCR was carried out in 96-well optical plates on QuantStudio Flex 6 RT PCR (Thermo Fisher) and KAPA SYBR FAST Master Mix (Roche). The PCR conditions included one initial denaturing step of 10 min at 95° C. and 40 cycles of 95° C. for 20 sec and 60° C. for 1 min. Melting-curve analysis was performed after amplification. To determine bacterial density, a plasmid with a 16S rRNA gene of a murine Blautia isolate was generated in the pCR4 backbone and used as a standard.

[4] = Short chain fatty acids profiling of mouse feces by IC-MS; type: in vivo, mice; conditions: meropenem-treated allo-HSCT mice, day 18
Procedure: To determine the relative abundance of short chain fatty acids in mouse feces samples, extracts were prepared and analyzed by ultra-high resolution mass spectrometry (HRMS). Fecal pellets were homogenized with a Precellys Tissue Homogenizer. Metabolites were extracted using 1 mL ice-cold 0.1% Ammonium hydroxide in 80/20 (v/v) methanol/water. Extracts were centrifuged at 17,000 g for 5 min at 4° C., and supernatants were transferred to clean tubes, followed by evaporation to dryness under nitrogen. Dried extracts were reconstituted in deionized water, and 5 μL was injected for analysis by IC-MS. IC mobile phase A (MPA; weak) was water, and mobile phase B (MPB; strong) was water containing 100 mM KOH. A Thermo Scientific Dionex ICS-5000+ system included a Thermo IonPac AS11 column (4 μm particle size, 250×2 mm) with column compartment kept at 30° C. The autosampler tray was chilled to 4° C. The mobile phase flow rate was 360 μL/min, and the gradient elution program was: 0-5 min, 1% MPB; 5-25 min, 1-35% MPB; 25-39 min, 35-99% MPB; 39-49 min, 99% MPB; 49-50, 99-1% MPB. The total run time was 50 min. To assist the desolvation for better sensitivity, methanol was delivered by an external pump and combined with the eluent via a low dead volume mixing tee. Data were acquired using a Thermo Orbitrap Fusion Tribrid Mass Spectrometer under ESI negative ionization mode at a resolution of 240,000. […]

allo-HSCT patients = experiment: Retrospective study of 295 allo-HSCT patients: acute GvHD by antibiotic exposure; type: in vivo, human; conditions: until day 100; antibiotic exposure days −10 to 30
Procedure: 295 patients with acute myeloid leukemia (AML) or myelodysplastic syndrome (MDS) underwent allogeneic hematopoietic stem cell transplantation (allo-HSCT) with fludarabine plus busulfan as conditioning therapy and tacrolimus and methotrexate as GvHD prophylaxis from 2011 and 2016 at MD Anderson Cancer Center and were analyzed retrospectively. Patients were classified by antibiotic exposures, including those who received neither cefepime nor meropenem, those who received cefepime alone, those who received meropenem alone and those who received both cefepime and meropenem from day −10 to day after allo-HSCT. Acute GvHD was diagnosed by clinical and/or pathological findings, and graded according to standard criteria (Przepiorka et al., 1995).

intestinal microbiota [5] = experiment: 16S rRNA sequencing of fecal and mucosal microbiome in mice; type: in vivo
Procedure: Fecal samples which were collected from patients and mice and colonic mucosal samples, which were collected from mice were weighed before DNA isolation. […] The quality and quantity of the barcoded amplicons were assessed on an Agilent 4200 TapeStation system (Agilent) and Qubit Fluorometer (Thermo Fisher Scientific), and libraries were prepared after pooling at equimolar ratios. The final libraries were purified using QIAquick gel extraction kit (28706X4, Qiagen) and sequenced with a 2×250 base pair paired-end protocol on the Illumina MiSeq platform.
For differential abundance analysis, abundances of sequences belonging to taxonomical groups were included for analysis using the Mann-Whitney U test and adjusted for multiple comparisons using the method of Benjamini-Hochberg. Paired samples were analyzed using the Wilcoxon signed rank test with adjustment for multiple comparisons.

[6] = Meropenem concentration in stool during drinking water administration; type: in vivo; conditions: 48 hours after starting meropenem treatment, normal SPF mice
Procedure: as §1
To further explore the relationship between meropenem and intestinal GvHD, the effects of meropenem on GvHD was examined in a mouse model of allo-HSCT. A method of administering meropenem to mice that mimicked the effects of meropenem on the intestinal microbiome of patients was developed. Meropenem concentrations in the cecal lumen of mice were quantified 4, 8, 24, 48 and 96 hours after subcutaneous injection. […] Drinking water was then evaluated as a means of continuously administering meropenem to mice, using bacterial density quantified by 16S ribosomal RNA (16S rRNA) gene quantitative PCR (qPCR) to gauge reductions of the intestinal microbiota.

[7] = Carbohydrates analysis of mouse feces by IC-MS; type: in vivo; conditions: allogeneic mice, day 18
Procedure: To determine the relative abundance of carbohydrates in mouse feces samples, extracts were prepared and analyzed by ultra-HRMS. Fecal pellets were homogenized with a Precellys Tissue Homogenizer. Metabolites were extracted using 1 mL ice-cold 80/20 (v/v) methanol/water. Extracts were centrifuged at 17,000 g for 5 min at 4° C., and supernatants were transferred to clean tubes, followed by evaporation to dryness under nitrogen. Dried extracts were reconstituted in deionized water, and 5 μL was injected for analysis by IC-MS. IC mobile phase A (MPA; weak) was water, and mobile phase B (MPB; strong) was water containing 100 mM KOH. A Thermo Scientific Dionex ICS-5000+ system included a Thermo CarboPac PA-20-Fast column (4 μm particle size, 100×2 mm) with column compartment kept at 30° C. The autosampler tray was chilled to 4° C. The mobile phase flow rate was 200 μL/min, and the gradient elution program was: 0-0.5 min, 1% MPB; 0.5-10 min, 1-5% MPB; 10-15 min, 5-95% MPB; 15-20 min, 95% MPB; 20.5-25, 95-1% MPB. The total run time was 25 min. To assist the desolvation for better sensitivity, methanol was delivered by an external pump and combined with the eluent via a low dead volume mixing tee. Data were acquired using a Thermo Orbitrap Fusion Tribrid Mass Spectrometer under ESI negative ionization mode at a resolution of 240,000. […]

colonic mucus layer = experiment: Colonic mucus thickness by PAS staining; type: in vivo, mice; conditions: allogeneic mice, day 18
Source text: as §2

C[C@@H](O)[C@H]1C(=O)N2C(C(=O)O)=C(S[C@@H]3CN[C@H](C(=O)N(C)C)C3)[C@H](C)[C@H]12 [meropenem]
meropenem concentrations in the cecal lumen [1]: increase in meropenem concentrations in the cecum at 4 hours after injection, which rapidly declined afterwards
GvHD histological scores in the colon ([2]; meropenem days 3 to 15, day 18, vs control allogeneic mice): significantly higher GvHD histological scores in the colon
overall survival ([2]; meropenem in drinking water days 3 to 15, vs control allogeneic mice): significantly worsened survival
reduction in fecal bacterial density (intestinal microbiota [3]): one-log reduction
fecal levels of SCFAs [4]: reduced fecal levels of SCFAs
incidence of acute intestinal GvHD (allo-HSCT patients): increased
abundances of Bacteroides and several other genera (intestinal microbiota [5]; allogeneic mice, day 21): significantly higher abundances
relative abundance of Clostridia (intestinal microbiota [5]; meropenem-treated allogeneic mice, from day 7 until 6 days after stopping): depleted; also recorded: significantly decreased
compositional differences between luminal and mucosal samples (intestinal microbiota [5]; treated allogeneic mice, PERMANOVA testing): loss of this distinction
meropenem concentration in stool [6]: 0.11 ± 0.07 µg/g
levels of luminal monosaccharides in the colon [7]: significantly lower concentrations of arabinose and xylose; also recorded: decreased levels of xylose
colonic mucus layer (colonic mucus layer): significantly thinned colonic mucus layer; also recorded: thinning of the colonic mucus layer
